Among the data in patent publication EP2096113A1, “9-substituted camptothecin derivatives as antitumor compounds” (SIGMA-TAU Industrie Farmaceutiche Riunite S.p.A., priority 2008, dated 2009) are IC50 values, retold here.

Broadly, the IC50 is the concentration that gives 50% inhibition.

Where two headings read alike, the source gives them in different places.

For test [1], the system named is NCI-H460 non-microcytoma lung cancer cells. The following applies: topotecan value reported for comparison, from Dallavalle S. et al., J. Med. Chem., 44, 3264-74, 2001; read-out: IC50 (µM) H-460; cited from earlier work.
For test [2] the test system is unchanged. The test is described as follows: Cytotoxic activity on NCI-H460 cells (sulforodamine B test). The following applies: product concentration that inhibits cell survival by 50%; 2 hours incubation with products, then another 72 hours in drug-free medium; optical density at 540 nm; read-out: IC50 (µM) H-460. The class given is cell-based. As for the experimental part: NCI-H460 non-microcytoma lung cancer cells were kept in RPMI 1640 culture medium containing 10% FCS and 1% glutamine. The cytotoxicity test to analyse the activity of the molecules was performed as follows. The cells were seeded in a volume of 250 µl in 96-well plates and incubated for 2 hours at 37°C with scalar concentrations of the products in a humidified atmosphere containing 5% CO2. At the end of the incubation, the molecules were removed by overturning the plates and adding sterile buffered saline solution (PBS) three times. The RPMI 1640 culture medium containing 10% FCS (200 µl) was added to the wells and the plates were incubated for another 72 hours. At the end of the incubation, the plates were overturned again and dried on paper, before adding 200 µl of PBS and 50 µl of 80% TCA. The plates were incubated again in ice for at least 1 hour. The TCA was removed by overturning the plates and the plates were first dried on paper and then washed three times by immersion in distilled water and overturning. The plates were dried first on paper and then in a thermostatically regulated incubator at 60°C for 10 min. 200 µl of 0.4% sulforodamine B in 1% acetic acid were added to all wells. The plates were incubated at room temperature for another 30 min. The sulforodamine B was removed by overturning, the plates were washed by immersion in 1% acetic acid three times and then dried first on blotting paper and then in the thermostat at 60°C for 10 min. Lastly, 200 µl of Tris base 10 mM were added to all wells and the plates were subjected to stirring for at least 20 min. The optical density was measured with a Multiskan spectrophotometer at 540 nm. Incubation with the products was capable of inhibiting proliferation in a concentration-dependent manner. Table 1 presents the IC50 values (product concentration that inhibits cell survival by 50%]. IC50 values for topotecan have also been reported for comparison purposes (Dallavalle S. et al., J. Med. Chem., 44, 3264-74, 2001). Table 1.

As for `CC[C@@]1(O)C(=O)OCc2c1cc1n(c2=O)Cc2cc3c(CN(C)C)c(O)ccc3nc2-1` [topotecan, 10-hydroxy-9-dimethylaminomethylcamptothecin], in test [1], the IC50 is 1.38 µM.
Turning to `CC[C@@]1(O)C(=O)OCc2c1cc1n(c2=O)Cc2cc3c(C=NOCCN)cccc3nc2-1` [CPT-9-CH=NOCH2CH2NH2, 9-(2-Aminoethoxy)iminomethylcamptothecin], the half-maximal inhibitory concentration (IC50) in test [2] is 2.53 µM.
On the same count and under the same terms, to `CC[C@@]1(O)C(=O)OCc2c1cc1n(c2=O)Cc2cc3c(C=NOC(C)(C)C)c(O)ccc3nc2-1` [10-OH-CPT-9-CH=NOC(CH3)3, 10-hydroxy-9-tert-butoxyiminomethylcamptothecin] belongs 0.35 µM; to `CC[C@@]1(O)C(=O)OCc2c1cc1n(c2=O)Cc2cc3c(C=NOC(C)(C)C)cccc3nc2-1` [CPT-9-CH=NOC(CH3)3, 9-tert-Butoxyiminomethylcamptothecin], 0.067 µM; to `CC[C@@]1(O)C(=O)OCc2c1cc1n(c2=O)Cc2cc3c(C=NOC(C)(C)C)c(OC)ccc3nc2-1` [10-OCH3-CPT-9-CH=NOC(CH3)3, 10-methoxy-9-tert-butoxyiminomethylcamptothecin], 0.31 µM.
Take `CC[C@@]1(O)C(=O)OCc2c1cc1n(c2=O)Cc2cc3c(C#N)c(OC)ccc3nc2-1` [10-OCH3-CPT-9-CN, 10-Methoxy-9-cyanocamptothecin]: in test [2], the half-maximal inhibitory concentration (IC50) stood at 0.27 µM.
